Residue numbers refer to the chain shown, from its start.
Assays:
[1] = system: T1, Lysosomal alpha-mannosidase (Homo sapiens), O00754 [C55F]; assay: Chaperone activity at human Lysosomal alpha-mannosidase C55F mutant transfected in human […] knockout HAP1 cells assessed as enzyme activity enhancement at 0.2 uM incubated for 96 hrs relative to control
T1 sequence (whole entry): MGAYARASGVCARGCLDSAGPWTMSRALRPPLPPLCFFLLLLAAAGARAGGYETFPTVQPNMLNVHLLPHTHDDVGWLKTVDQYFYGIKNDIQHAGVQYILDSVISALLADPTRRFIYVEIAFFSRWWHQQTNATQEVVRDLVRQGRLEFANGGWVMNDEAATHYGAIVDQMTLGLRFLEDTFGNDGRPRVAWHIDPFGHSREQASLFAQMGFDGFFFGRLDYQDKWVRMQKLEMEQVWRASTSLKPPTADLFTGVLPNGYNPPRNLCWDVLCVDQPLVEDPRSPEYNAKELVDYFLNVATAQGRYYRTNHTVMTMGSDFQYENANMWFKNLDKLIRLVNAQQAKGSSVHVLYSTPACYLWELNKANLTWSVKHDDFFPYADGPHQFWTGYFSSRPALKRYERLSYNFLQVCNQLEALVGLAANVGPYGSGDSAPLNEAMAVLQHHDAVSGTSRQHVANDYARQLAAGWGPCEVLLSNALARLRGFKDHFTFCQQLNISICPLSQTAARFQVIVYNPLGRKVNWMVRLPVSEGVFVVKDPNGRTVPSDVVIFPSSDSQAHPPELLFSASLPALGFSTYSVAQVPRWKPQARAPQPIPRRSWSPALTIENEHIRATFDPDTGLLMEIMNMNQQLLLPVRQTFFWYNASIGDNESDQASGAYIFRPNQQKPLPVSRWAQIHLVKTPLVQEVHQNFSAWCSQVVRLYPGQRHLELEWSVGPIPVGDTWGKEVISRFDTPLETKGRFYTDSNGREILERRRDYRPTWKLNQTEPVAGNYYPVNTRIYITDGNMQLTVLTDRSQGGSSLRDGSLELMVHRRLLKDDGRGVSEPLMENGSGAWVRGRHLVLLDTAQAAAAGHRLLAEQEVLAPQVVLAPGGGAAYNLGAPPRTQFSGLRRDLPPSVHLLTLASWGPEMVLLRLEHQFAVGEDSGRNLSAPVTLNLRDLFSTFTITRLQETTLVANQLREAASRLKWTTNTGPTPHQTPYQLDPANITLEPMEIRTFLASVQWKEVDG

[2] = target: T2, Lysosomal alpha-mannosidase (Homo sapiens) (UniProt O00754); assay: Chaperone activity at Lysosomal alpha-mannosidase in wild-type human fibroblasts assessed as increase in Lysosomal alpha-mannosidase activity at 0.2 uM using 4-methylumbelliferone alpha-D-mannopyranoside as a reporter substrate incubated for 4 days by fluorescence method relative to control
T2 sequence (whole entry): T1 sequence (whole entry) with F55C

Activity [1] [%]	fold change (FC) [2]	Compound
23	2	COC[C@H]1O[C@@H]2O[C@H]3[C@H](OC)[C@@H](OC)[C@@H](O[C@H]4[C@H](OC)[C@@H](OC)[C@@H](O[C@H]5[C@H](OC)[C@@H](OC)[C@@H](O[C@H]6[C@H](OC)[C@@H](OC)[C@@H](O[C@H]7[C@H](OC)[C@@H](OC)[C@@H](O[C@H]8[C@H](OC)[C@@H](OC)[C@@H](O[C@H]1[C@H](OC)[C@H]2OC)O[C@@H]8COC)O[C@@H]7COC)O[C@@H]6COC)O[C@@H]5COCc1cn(CCCCCCN[C@@H]2[C@@H](O)[C@@H](O)[C@H](O)[C@H]5COC(=O)N52)nn1)O[C@@H]4COC)O[C@@H]3COC
13		CC(C)(C)OC(=O)NCCCCCCCCCN[C@@H]1[C@@H](O)[C@@H](O)[C@H](O)[C@H]2COC(=O)N21
	2	CCCc1cn(CCCCCCN[C@@H]2[C@@H](O)[C@@H](O)[C@H](O)[C@H]3COC(=O)N32)nn1
